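A five-concentration, 48-hour dose response in 96-well plates underlies each endpoint, interpolated linearly between surrounding concentrations. Abbreviation: GI50, concentration required for 50% inhibition of growth.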 Calls of active or inactive are those of the source. Rule as the data show it: active = GI50 up to about 1.1 µM and inactive = higher. Non-standard residues stand in square brackets, D forms with d. Residues, ends and D or L forms follow the SMILES beside them. *: point of attachment. Phe(4-NO2) = N[CH](Cc1ccc([N+](=O)[O-])cc1)C(=O)O; Boc = CC(C)(C)OC(=O)*
Experiments:
Assay in all cases: DTP human tumour cell line panel, 48 h
T47D = system: T47D
Hs-578T = system: Hs-578T
MDA-N = system: MDA-N
MDA-MB-231 = system: MDA-MB-231

SMILES: NC(=O)CCSC(CC(=O)c1ccc(Cl)cc1)c1ccc(Cl)cc1 (configuration not stated)
- GI50 (T47D): 19.1 µM (inactive)
- GI50 (Hs-578T): 46.5 µM (inactive)
- GI50 (MDA-N): 16.7 µM (inactive)
- GI50 (MDA-MB-231): 40.2 µM (inactive)

SMILES: COCCCNc1c2ccccc2nc2ccccc12
- GI50 (T47D): 2.64 µM (inactive)
- GI50 (Hs-578T): 2.78 µM (inactive)
- GI50 (MDA-N): 3.09 µM (inactive)
- GI50 (MDA-MB-231): 3.25 µM (inactive)

SMILES: CC(C)(O)C1COC2=C1C(=O)c1ccccc1C2=O (configuration not stated)
- GI50 (T47D): 33.4 µM (inactive)
- GI50 (Hs-578T): 27 µM (inactive)
- GI50 (MDA-N): 18.6 µM (inactive)
- GI50 (MDA-MB-231): 38.7 µM (inactive)

SMILES: Cc1cccc(C)c1NC(=S)N/C=C(\C#N)C(N)=O
- GI50 (Hs-578T): > 100 µM (inactive)
- GI50 (MDA-N): > 100 µM (inactive)
- GI50 (MDA-MB-231): > 100 µM (inactive)

SMILES: c1nc2nc[nH]c(SSc3[nH]cnc4ncnc3-4)c-2n1
- GI50 (T47D): 2.64 µM (inactive)
- GI50 (Hs-578T): 5.89 µM (inactive)

SMILES: CC(C)(Br)C(Br)CCC(C)(Br)C(Br)CO (configuration not stated)
- GI50 (T47D): > 10 µM (inactive)
- GI50 (Hs-578T): > 10 µM (inactive)
- GI50 (MDA-N): > 10 µM (inactive)
- GI50 (MDA-MB-231): > 10 µM (inactive)

SMILES: CC(=O)NCCc1c[nH]c2ccc(Cl)cc12
- GI50 (T47D): > 100 µM (inactive)
- GI50 (Hs-578T): > 100 µM (inactive)
- GI50 (MDA-N): > 100 µM (inactive)
- GI50 (MDA-MB-231): > 100 µM (inactive)

SMILES: O=C(N/N=C\C(F)(F)F)c1ccncc1
- GI50 (Hs-578T): 38.6 µM (inactive)

SMILES: N#CC1=C(N)C(C#N)(C#N)C(c2ccc(F)cc2)C=C1C1CC1 (configuration not stated)
- GI50 (T47D): 12.1 µM (inactive)
- GI50 (Hs-578T): 16.5 µM (inactive)
- GI50 (MDA-N): 2.27 µM (inactive)
- GI50 (MDA-MB-231): 16.5 µM (inactive)

SMILES: CCOC(=O)C1=CN/C(=C(/C)C(=O)OC)SC1C(=O)OCC (configuration not stated)
- GI50 (T47D): 57.9 µM (inactive)
- GI50 (Hs-578T): > 100 µM (inactive)
- GI50 (MDA-N): > 100 µM (inactive)
- GI50 (MDA-MB-231): > 100 µM (inactive)

SMILES: CCC(C)C1=C(O)[N+]2([O-])Oc3ccc(-c4c(O)c(O)c(-c5ccc(O)cc5)c(OC(C)=O)c4OC(C)=O)cc3OC2(C(C)CC)C(=O)N1O (configuration not stated)
- GI50 (T47D): > 50 µM (inactive)
- GI50 (MDA-N): 17.1 µM (inactive)
- GI50 (MDA-MB-231): > 50 µM (inactive)

SMILES: CC(C)(C)[Si](C)(C)OCCOCn1cc(F)c(=O)[nH]c1=O
- GI50 (T47D): 69 µM (inactive)
- GI50 (Hs-578T): > 100 µM (inactive)
- GI50 (MDA-N): > 100 µM (inactive)

SMILES: COC(=O)C1[C@H](C(=O)OC)C1(Br)CBr (some centres not stated)
- GI50 (T47D): > 100 µM (inactive)
- GI50 (Hs-578T): > 100 µM (inactive)
- GI50 (MDA-N): > 100 µM (inactive)
- GI50 (MDA-MB-231): > 100 µM (inactive)

SMILES: Cc1cccc(NC(=O)O/N=C(\Cl)C(C)C)c1
- GI50 (T47D): 6.82 µM (inactive)
- GI50 (Hs-578T): 23.1 µM (inactive)
- GI50 (MDA-N): 10.5 µM (inactive)
- GI50 (MDA-MB-231): 17.9 µM (inactive)

SMILES: COc1nc(-c2cn(S(=O)(=O)c3ccc(C)cc3)c3ccc(Br)cc23)cc(C(F)(F)F)c1C#N
- GI50 (T47D): 19.5 µM (inactive)
- GI50 (MDA-N): > 100 µM (inactive)

SMILES: COC(C)(C)CCc1[nH]c2ccccc2c1CC(=O)NCCc1cncn1C
- GI50 (T47D): > 100 µM (inactive)
- GI50 (Hs-578T): > 100 µM (inactive)
- GI50 (MDA-N): > 100 µM (inactive)
- GI50 (MDA-MB-231): > 100 µM (inactive)

SMILES: CN1C(=O)[C@@H]2[C@@H]3c4ccccc4N[C@@H]3c3[nH]c4ccccc4c3[C@@H]2C1=O
- GI50 (Hs-578T): 28.3 µM (inactive)
- GI50 (MDA-N): 31.8 µM (inactive)
- GI50 (MDA-MB-231): 21 µM (inactive)

SMILES: N#Cc1nc(Cc2cccs2)oc1N
- GI50 (Hs-578T): > 100 µM (inactive)
- GI50 (MDA-N): > 100 µM (inactive)
- GI50 (MDA-MB-231): > 100 µM (inactive)

SMILES: CC(=O)/C(=C/n1c(=S)[nH]c2ccccc21)C(=O)Nc1ccccc1C
- GI50 (T47D): > 100 µM (inactive)
- GI50 (MDA-N): > 100 µM (inactive)
- GI50 (MDA-MB-231): > 100 µM (inactive)

SMILES: O=c1[nH]nc(Cc2ccccc2)n1/N=C/c1cccnc1
- GI50 (T47D): > 100 µM (inactive)
- GI50 (Hs-578T): > 100 µM (inactive)
- GI50 (MDA-N): > 100 µM (inactive)
- GI50 (MDA-MB-231): > 100 µM (inactive)

SMILES: COc1cc2c(cc1OC)C1(c3ccccc3)CN(C2)Cc2cc(OC)c(OC)cc21
- GI50 (T47D): 35.6 µM (inactive)
- GI50 (Hs-578T): 27.5 µM (inactive)
- GI50 (MDA-N): > 100 µM (inactive)
- GI50 (MDA-MB-231): 24.3 µM (inactive)

SMILES: O=C1O/C(=C\c2ccccc2)N(c2ccccc2)C1=O
- GI50 (T47D): > 100 µM (inactive)
- GI50 (Hs-578T): > 100 µM (inactive)
- GI50 (MDA-N): > 100 µM (inactive)
- GI50 (MDA-MB-231): > 100 µM (inactive)

SMILES: COc1ccc(C#CC(=O)O)c(OC)c1
- GI50 (T47D): > 100 µM (inactive)
- GI50 (Hs-578T): > 100 µM (inactive)
- GI50 (MDA-N): > 100 µM (inactive)
- GI50 (MDA-MB-231): > 100 µM (inactive)

SMILES: O=C1OI(C#Cc2ccccc2)c2ccccc21
- GI50 (T47D): 3.16 µM (inactive)
- GI50 (Hs-578T): 4.16 µM (inactive)
- GI50 (MDA-N): 4.16 µM (inactive)
- GI50 (MDA-MB-231): 6.1 µM (inactive)

SMILES: N/N=C1/C2CN3CCN(C2)CC1(c1ccc([N+](=O)[O-])cc1)C3
- GI50 (Hs-578T): 14.7 µM (inactive)
- GI50 (MDA-N): > 100 µM (inactive)
- GI50 (MDA-MB-231): > 100 µM (inactive)

SMILES: COc1ccc(-n2nnc3c(C#N)c(-c4ccccc4)c(C)n3c2=O)cc1
- GI50 (T47D): 49.5 µM (inactive)
- GI50 (Hs-578T): > 100 µM (inactive)
- GI50 (MDA-N): > 100 µM (inactive)
- GI50 (MDA-MB-231): 25.2 µM (inactive)

SMILES: Cc1ccc(C(=O)C2CC3(CCC2(O)c2ccc(C)cc2)CC(=O)Nc2ccccc2C3=O)cc1 (configuration not stated)
- GI50 (T47D): 8.57 µM (inactive)
- GI50 (Hs-578T): 41.1 µM (inactive)
- GI50 (MDA-N): > 100 µM (inactive)
- GI50 (MDA-MB-231): > 100 µM (inactive)

SMILES: C=C(C(=O)O)[C@@H]1C[C@@H](OC(C)=O)[C@]2(C)CC/C=C(\C)CCC[C@H](C)[C@H](O)[C@@H]1O2
- GI50 (T47D): > 100 µM (inactive)
- GI50 (Hs-578T): 49.9 µM (inactive)
- GI50 (MDA-N): 24.5 µM (inactive)
- GI50 (MDA-MB-231): > 100 µM (inactive)

SMILES: Nc1nn2c(nc(N)c3c(N)n[nH]c32)c1/N=N\c1ccc(Br)cc1
- GI50 (T47D): 1.76 µM (inactive)
- GI50 (Hs-578T): 3.32 µM (inactive)
- GI50 (MDA-N): 3.65 µM (inactive)
- GI50 (MDA-MB-231): 0.524 µM (active)

SMILES: CN(C)c1ccc(C2ON=C(c3ccccc3)N2C23CC4CC(CC(C4)C2)C3)cc1 (configuration not stated)
- GI50 (T47D): > 10 µM (inactive)
- GI50 (Hs-578T): > 10 µM (inactive)
- GI50 (MDA-N): > 10 µM (inactive)
- GI50 (MDA-MB-231): > 10 µM (inactive)

SMILES: COC(=O)CCC(NC(=O)OC(C)(C)C)C(=O)NC(Cc1ccc([N+](=O)[O-])cc1)C(=O)NC(CCC(=O)OC)C(=O)OC (configuration not stated) (Boc-Glu(OMe)-[Phe(4-NO2)]-Glu(OMe)-OMe; configuration not given here)
- GI50 (T47D): > 100 µM (inactive)
- GI50 (Hs-578T): > 100 µM (inactive)
- GI50 (MDA-N): > 100 µM (inactive)
- GI50 (MDA-MB-231): > 100 µM (inactive)

SMILES: CC1CN=C(Nc2cccc(C(F)(F)F)c2)S1 (configuration not stated)
- GI50 (T47D): 54 µM (inactive)
- GI50 (Hs-578T): 66.2 µM (inactive)
- GI50 (MDA-N): 40.6 µM (inactive)
- GI50 (MDA-MB-231): 28.1 µM (inactive)

SMILES: COc1ccccc1NC(=O)/C(Cc1nc2ccc([N+](=O)[O-])cc2nc1O)=N\NC(=O)C[N+](C)(C)C
- GI50 (Hs-578T): > 100 µM (inactive)
- GI50 (MDA-N): 14.9 µM (inactive)
- GI50 (MDA-MB-231): > 100 µM (inactive)

SMILES: Nc1c(C(=O)Nc2ccc([As](=O)(O)O)cc2)cnc2nnnn12
- GI50 (T47D): > 100 µM (inactive)
- GI50 (MDA-N): > 100 µM (inactive)
- GI50 (MDA-MB-231): > 100 µM (inactive)

SMILES: S=C(N/N=C(/c1ccccc1)c1ccccn1)Nc1cccc(Cl)c1
- GI50 (T47D): 0.00369 µM (active)
- GI50 (Hs-578T): 1.52 µM (inactive)
- GI50 (MDA-N): 0.557 µM (active)
- GI50 (MDA-MB-231): < 0.0202 µM (active)

SMILES: COc1ccc(OC)c(C(=O)/C=C/c2cc(O)c(O)cc2F)c1
- GI50 (T47D): 5.85 µM (inactive)
- GI50 (Hs-578T): 0.424 µM (active)
- GI50 (MDA-N): 0.181 µM (active)
- GI50 (MDA-MB-231): 1.41 µM (inactive)

SMILES: Clc1ccc(-c2cn3c(nc4ccccc43)c(/C=C/c3cccs3)n2)cc1
- GI50 (T47D): 27.3 µM (inactive)
- GI50 (Hs-578T): 43.8 µM (inactive)
- GI50 (MDA-N): > 100 µM (inactive)
- GI50 (MDA-MB-231): 53.7 µM (inactive)

SMILES: CCCCCCc1ccc(C(=O)NO)cc1
- GI50 (T47D): 19.5 µM (inactive)
- GI50 (Hs-578T): > 100 µM (inactive)
- GI50 (MDA-N): 45.6 µM (inactive)
- GI50 (MDA-MB-231): 95.7 µM (inactive)

SMILES: C[C@]12C[C@H](O)[C@H]3[C@@H](CCC4=CC(=O)CC[C@@]43C)[C@@H]1CC[C@@H]2c1csc(-c2ccccc2)n1
- GI50 (T47D): 3.15 µM (inactive)
- GI50 (Hs-578T): 30.1 µM (inactive)
- GI50 (MDA-N): > 80.7 µM (inactive)
- GI50 (MDA-MB-231): 20.1 µM (inactive)

SMILES: Nc1n2nc(-c3ccccc3)sc2n[n+]1CC(=O)c1ccccc1
- GI50 (T47D): 30.4 µM (inactive)
- GI50 (Hs-578T): 47.6 µM (inactive)

— ChEMBL document CHEMBL1201862, “PubChem BioAssay data set” (2004)
